compound: O=C(/C=C/c1ccccc1)NC(NC(=S)Nc1cccc2cccnc12)C(Cl)(Cl)Cl [Salubrinal] + CC(=O)c1c(C)c2cnc(Nc3ccc(N4CCNCC4)cn3)nc2n(C2CCCC2)c1=O [Palbociclib] (partner 0.5 µM); assay: relative viability (nuclei count vs DMSO), 5 days (fraction); higher = more cells survive; settings: first compound 0.8 µM
Method in brief: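 One day after seeding in 1536-well plates, lung cancer cell lines were dosed by pin tool. Dosing was either single-drug or a fixed anchor-drug dose plus five library-drug doses (not always all listed) in √10 steps. After 5 days, nuclei were stained in one fix-and-stain step and counted on 4× images, and relative viability is the nuclei count of treated wells over that of vehicle wells, given as the median of duplicate plates.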

Row | Cell Line | relative viability
1 | NCI-H2347 | 0.415
2 | SK-LU-1 | 0.411
3 | NCI-H1395 | 0.591
4 | 201T | 0.413
5 | NCI-H1915 | 0.576
6 | HCC-827 | 0.514
7 | LXF-289 | 0.633
8 | NCI-H23 | 0.598
9 | NCI-H647 | 0.39
10 | CAL-12T | 0.676
11 | NCI-H1651 | 0.564
12 | EPLC-272H | 0.293
13 | NCI-H2228 | 1.04
14 | NCI-H1792 | 0.678
15 | NCI-H1355 | 0.412
16 | NCI-H3122 | 0.172
17 | NCI-H1437 | 0.327
18 | NCI-H1755 | 0.446
19 | NCI-H2023 | 0.359
20 | HCC-15 | 0.844
21 | PC-14 | 0.609
22 | EKVX | 0.791

same assay, conditions: first compound 2.53 µM

Row | Cell Line | relative viability
23 | NCI-H522 | 0.94
24 | NCI-H2342 | 0.49
25 | NCI-H727 | 0.605
26 | NCI-H1650 | 0.366
27 | SW 1573 | 0.374
28 | NCI-H838 | 0.247
29 | LCLC-103H | 0.453
30 | NCI-H520 | 0.21
31 | NCI-H2126 | 0.388
32 | EMC-BAC-2 | 0.525
33 | NCI-H2085 | 0.438
34 | HCC-366 | 0.385
35 | NCI-H1666 | 0.641
36 | LK-2 | 0.597
37 | NCI-H2087 | 0.234
38 | NCI-H358 | 0.109
39 | NCI-H2170 | 0.395
40 | H3255 | 0.299
41 | COR-L23 | 0.331
42 | COR-L 105 | 0.408

Row | Cell Line | relative viability
43 | LOU-NH91 | 0.556
44 | ChaGo-K-1 | 0.938
45 | NCI-H1793 | 0.284
46 | NCI-H2405 | 0.524
47 | HOP-62 | 0.457
48 | HCC-44 | 0.998
49 | SK-MES-1 | 0.305
50 | LU99A | 0.388
51 | BEN | 0.457
52 | HARA | 0.269
53 | SW 900 | 0.468
54 | HCC-78 | 0.464
55 | NCI-H322M | 0.483
56 | LCLC-97TM1 | 0.227
57 | NCI-H2009 | 0.225
58 | A-427 | 0.502
59 | NCI-H441 | 0.23
60 | NCI-H661 | 0.412
61 | NCI-H1734 | 0.344
62 | NCI-H460 | 0.145

Row | Cell Line | relative viability
63 | NCI-H2347 | 0.388
64 | SK-LU-1 | 0.427
65 | NCI-H1395 | 0.62
66 | 201T | 0.351
67 | NCI-H1915 | 0.559
68 | HCC-827 | 0.475
69 | LXF-289 | 0.578
70 | NCI-H23 | 0.46
71 | NCI-H647 | 0.431
72 | CAL-12T | 0.436
73 | NCI-H1651 | 0.513
74 | EPLC-272H | 0.288
75 | NCI-H2228 | 0.752
76 | NCI-H1792 | 0.686
77 | NCI-H1355 | 0.402
78 | NCI-H3122 | 0.195
79 | NCI-H1437 | 0.315
80 | NCI-H1755 | 0.462
81 | NCI-H2023 | 0.419
82 | HCC-15 | 0.777
